Measured values reported in the SangsterLogP compilation.

assay: method code SF-AS, from DOI: 10.1021/jm00344a020, PMID: 7057427

Structure (SMILES)	logP
O=C(COc1cccc2ccccc12)NN1CC=CCC1	1.96
O=C(NN1CC=CCC1)c1cccc(C(=O)NN2CC=CCC2)n1	-0.52
O=C(NN1CC=CCC1)C12CC3CC(CC(C3)C1)C2	1.45
O=C(Cc1ccc2c(c1)OCO2)NN1CC=CCC1	0.68
CC(C)(C)C(=O)NN1CC=CCC1	1.03

Next, values leading:

logP	Structure (SMILES)
-0.32	O=C(NN1CC=CCC1)c1cccc[n+]1[O-]
-0.06	O=C(COc1ccccc1)NN1CC=CCC1
0.05	O=C(Cc1cccnc1)NN1CC=CCC1
1.88	O=C(NN1CC=CCC1)c1cccs1
0.81	O=C(NN1CC=CCC1)c1ccco1

assay: method code SF, from DOI: 10.1021/jm00344a020, PMID: 7057427

Structure (SMILES)	logP
O=C(NN1CC=CCC1)C1CCCCCC1	1.5
O=C(NC1CCCC1)N1CC=CCC1	1.92
O=C(NN1CC=CCC1)C1CC1	1.12
O=C(NN1CC=CCC1)C1CCCCC1	0.45

Further lines, results first:

logP	Structure (SMILES)
0.52	CC(=O)NN1CC=CCC1
1.09	CCOC(=O)NN1CC=CCC1
